How the values were obtained:
[1] = biological target: Vascular endothelial growth factor receptor 2 (Homo sapiens, UniProt P35968); assay type: cell-based, U-251
[2] = biological target: Platelet-derived growth factor receptor beta (Homo sapiens, UniProt P09619); test: Inhibition of PDGFR-beta in human U251 cells compound pretreated for 60 min before PDGF-BB stimulation for 10 mins by phosphotyrosine ELISA cytoblot method; assay type: cell-based, U-251
[3] = tested on: A-431; test: Antiproliferative activity against human A431 cells after 48 hrs by sulforhodamine B assay; assay type: functional, cell-based; conditions: A-431, 48 h

Sequence of Vascular endothelial growth factor receptor 2 (P35968 whole entry): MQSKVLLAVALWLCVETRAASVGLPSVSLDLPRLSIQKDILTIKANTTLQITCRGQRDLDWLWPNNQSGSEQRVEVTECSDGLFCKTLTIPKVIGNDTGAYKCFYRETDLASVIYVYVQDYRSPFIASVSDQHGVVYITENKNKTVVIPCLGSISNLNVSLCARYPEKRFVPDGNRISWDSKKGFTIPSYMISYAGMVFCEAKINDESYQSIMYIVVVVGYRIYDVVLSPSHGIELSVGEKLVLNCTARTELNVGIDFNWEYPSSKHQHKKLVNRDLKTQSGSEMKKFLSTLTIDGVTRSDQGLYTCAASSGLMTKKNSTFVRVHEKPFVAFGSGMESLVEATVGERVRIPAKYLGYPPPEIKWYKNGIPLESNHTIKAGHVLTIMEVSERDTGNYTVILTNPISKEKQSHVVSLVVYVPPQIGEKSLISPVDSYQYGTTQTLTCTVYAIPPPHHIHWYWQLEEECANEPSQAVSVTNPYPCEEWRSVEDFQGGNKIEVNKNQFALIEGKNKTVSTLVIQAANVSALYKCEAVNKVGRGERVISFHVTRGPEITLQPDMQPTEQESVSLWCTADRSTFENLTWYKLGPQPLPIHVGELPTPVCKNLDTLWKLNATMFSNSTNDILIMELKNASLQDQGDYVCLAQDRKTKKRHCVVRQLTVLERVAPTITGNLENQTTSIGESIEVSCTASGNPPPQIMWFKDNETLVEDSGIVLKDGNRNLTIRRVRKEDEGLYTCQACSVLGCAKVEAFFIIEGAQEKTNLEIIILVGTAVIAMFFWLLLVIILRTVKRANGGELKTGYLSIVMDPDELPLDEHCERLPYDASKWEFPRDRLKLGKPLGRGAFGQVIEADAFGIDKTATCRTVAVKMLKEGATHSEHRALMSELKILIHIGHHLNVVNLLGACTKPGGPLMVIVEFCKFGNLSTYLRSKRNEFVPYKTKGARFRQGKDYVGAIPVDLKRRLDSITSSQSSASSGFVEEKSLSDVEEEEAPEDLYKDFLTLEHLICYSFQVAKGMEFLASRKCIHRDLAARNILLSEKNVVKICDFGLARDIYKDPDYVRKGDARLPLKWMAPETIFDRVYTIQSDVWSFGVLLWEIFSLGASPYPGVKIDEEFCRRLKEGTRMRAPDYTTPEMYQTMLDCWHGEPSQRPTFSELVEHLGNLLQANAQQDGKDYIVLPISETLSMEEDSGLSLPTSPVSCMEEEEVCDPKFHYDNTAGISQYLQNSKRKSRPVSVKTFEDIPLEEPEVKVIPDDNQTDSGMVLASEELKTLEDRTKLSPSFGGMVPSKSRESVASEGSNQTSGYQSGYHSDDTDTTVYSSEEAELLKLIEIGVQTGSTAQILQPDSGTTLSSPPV
Sequence of Platelet-derived growth factor receptor beta (P09619 whole entry): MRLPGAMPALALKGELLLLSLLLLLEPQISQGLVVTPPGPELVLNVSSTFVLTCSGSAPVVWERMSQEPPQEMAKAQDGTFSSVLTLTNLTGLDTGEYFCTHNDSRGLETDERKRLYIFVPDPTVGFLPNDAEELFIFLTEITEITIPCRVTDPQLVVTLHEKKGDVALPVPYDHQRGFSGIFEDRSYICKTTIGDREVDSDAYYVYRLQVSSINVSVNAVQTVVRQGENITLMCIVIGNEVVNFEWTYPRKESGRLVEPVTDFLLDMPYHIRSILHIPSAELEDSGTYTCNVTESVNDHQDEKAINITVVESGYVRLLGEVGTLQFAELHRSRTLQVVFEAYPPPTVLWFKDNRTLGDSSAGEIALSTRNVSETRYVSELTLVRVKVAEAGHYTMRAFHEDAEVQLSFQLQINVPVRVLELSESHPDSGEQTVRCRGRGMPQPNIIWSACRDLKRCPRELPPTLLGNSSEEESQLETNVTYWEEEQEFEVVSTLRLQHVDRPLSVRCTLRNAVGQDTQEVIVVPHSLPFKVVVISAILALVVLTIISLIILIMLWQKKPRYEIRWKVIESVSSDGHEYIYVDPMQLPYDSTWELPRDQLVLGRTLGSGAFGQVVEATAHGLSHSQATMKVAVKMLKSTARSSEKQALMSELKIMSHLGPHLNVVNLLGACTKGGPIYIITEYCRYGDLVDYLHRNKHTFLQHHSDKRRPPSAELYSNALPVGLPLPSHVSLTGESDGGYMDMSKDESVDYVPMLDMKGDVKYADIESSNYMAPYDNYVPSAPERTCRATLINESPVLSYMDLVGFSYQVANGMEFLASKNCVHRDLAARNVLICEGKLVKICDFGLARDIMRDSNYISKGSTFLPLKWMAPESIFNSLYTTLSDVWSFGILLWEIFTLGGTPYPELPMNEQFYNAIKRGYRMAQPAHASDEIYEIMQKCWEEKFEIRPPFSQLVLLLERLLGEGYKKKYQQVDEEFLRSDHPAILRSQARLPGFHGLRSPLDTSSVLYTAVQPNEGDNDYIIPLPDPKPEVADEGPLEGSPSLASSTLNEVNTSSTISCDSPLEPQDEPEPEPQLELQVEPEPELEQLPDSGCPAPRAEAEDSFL

Q: Which results are given for `COc1ccc(N(C)c2nc(C)nc3oc(C)cc23)c(OC)c1`?
A: IC50 [1]: 32.3 nM; IC50 [2]: 40.4 nM; IC50 [3]: 17.1 nM

From ChEMBL document CHEMBL3400114, “The design, synthesis and biological evaluation of conformationally restricted 4-substituted-2,6-dimethylfuro[2,3-d]pyrimidines as multi-targeted receptor tyrosine kinase and microtubule inhibitors as potential antitumor agents” (Bioorg Med Chem, 2015)
